The record followed here is ChEMBL document CHEMBL3045429, “Exploration of antimicrobial potential of pyrazolo[3,4-b]pyridine scaffold bearing benzenesulfonamide and trifluoromethyl moieties” (2013).

In brackets after ≈: the same amount, converted by molar mass. Activity calls are given as the source filed them. The rule behind the calls is not given here. Some results are limits rather than exact numbers.

For assay [1], the system named is Staphylococcus aureus. The assay can be described thus: Antibacterial activity against Staphylococcus aureus MTCC 96 assessed as growth inhibition after 24 hr by agar well diffusion method. Type of assay: functional. The note with it: MTCC 96, 24 h. (In general: Agar diffusion results depend on both activity and mobility in agar.)
For assay [2], the system named is Candida albicans. Kind of assay: Antifungal activity against Candida albicans MTCC 227 assessed as growth inhibition after 24 hr by agar well diffusion method. Type of assay: functional. The note with it: MTCC 227, 24 h.
In assay [3] the test system is Bacillus subtilis. The assay can be described thus: Antibacterial activity against Bacillus subtilis MTCC 121 assessed as growth inhibition at 4 mg/mL after 24 hr by agar well diffusion method. The note with it: for zone of inhibition at 4000 µg/mL: MTCC 121, 24 h, read-out: DIZ. Type of assay: functional.
For assay [4], the system named is Saccharomyces cerevisiae. Kind of assay: Antifungal activity against Saccharomyces cerevisiae MTCC 170 assessed as growth inhibition after 24 hr by agar well diffusion method. Type of assay: functional. The note with it: MTCC 170, 24 h.
Another assay deals with Escherichia coli. Kind of assay: Antibacterial activity against Escherichia coli MTCC 1652 assessed as growth inhibition at 4 mg/mL after 24 hr by agar well diffusion method. Type of assay: functional, organism-based.
Assay [5] relates to Candida albicans. The assay can be described thus: Antifungal activity against Candida albicans MTCC 227 assessed as growth inhibition at 4 mg/mL after 24 hr by agar well diffusion method. The class given is functional. The note with it: for zone of inhibition at 4000 µg/mL: MTCC 227, 24 h, read-out: DIZ.
For assay [6], the system named is Staphylococcus aureus. Kind of assay: Antibacterial activity against Staphylococcus aureus MTCC 96 assessed as growth inhibition at 4 mg/mL after 24 hr by agar well diffusion method. Type of assay: functional. The note with it: for zone of inhibition at 4000 µg/mL: MTCC 96, 24 h, read-out: DIZ.
For assay [7], the system named is Saccharomyces cerevisiae. The assay can be described thus: Antifungal activity against Saccharomyces cerevisiae MTCC 170 assessed as growth inhibition at 4 mg/mL after 24 hr by agar well diffusion method. Type of assay: functional. The note with it: for zone of inhibition at 4000 µg/mL: MTCC 170, 24 h, read-out: DIZ.
Assay [8] has as its system Bacillus subtilis. Kind of assay: Antibacterial activity against Bacillus subtilis MTCC 121 assessed as growth inhibition after 24 hr by agar well diffusion method. Type of assay: functional. The note with it: MTCC 121, 24 h.

In the case of `COc1ccc(-c2cc(C(F)(F)F)c3c(-c4ccccc4)nn(-c4ccc(S(N)(=O)=O)cc4)c3n2)cc1`, the MIC (as a rule, the lowest concentration that inhibits growth of the organism) was found to be 64 µg/mL (≈ 122 µM) with Staphylococcus aureus [1], 128 µg/mL (≈ 244 µM) in the assay with Candida albicans [2], 256 µg/mL (≈ 488 µM) with Saccharomyces cerevisiae [4] and 32 µg/mL (≈ 61 µM) in the assay with Bacillus subtilis [8]. For the same compound, the zone of inhibition at 4000 µg/mL is 21.6 mm in the assay on Bacillus subtilis [3], 15.6 mm in the assay on Candida albicans [5], 19.3 mm with Staphylococcus aureus [6] and 14.6 mm with Saccharomyces cerevisiae [7]. The “growth inhibition (GI)” value in the assay with Escherichia coli was “inactive”.

Consider `NS(=O)(=O)c1ccc(-n2nc(-c3ccccc3)c3c(C(F)(F)F)cc(-c4ccccc4)nc32)cc1`, for which the MIC is 64 µg/mL (≈ 129 µM) in the assay on Staphylococcus aureus [1], 64 µg/mL (≈ 129 µM) in the assay with Candida albicans [2], 64 µg/mL (≈ 129 µM) with Saccharomyces cerevisiae [4] and 128 µg/mL (≈ 259 µM) in the assay on Bacillus subtilis [8]. Also, the zone of inhibition at 4000 µg/mL in the assay with Bacillus subtilis [3] came to 17 mm; with Candida albicans [5] it was 15.3 mm; in the assay on Staphylococcus aureus [6] it was 18.6 mm; in the assay on Saccharomyces cerevisiae [7] it was 16.3 mm. Besides, the “growth inhibition (GI)” value with Escherichia coli was “inactive”.

With `COc1ccc(-c2cc(C(F)(F)F)c3c(-c4ccc(Cl)cc4)nn(-c4ccc(S(N)(=O)=O)cc4)c3n2)cc1`, the “growth inhibition (GI)” value with Bacillus subtilis [3], in the assay on Escherichia coli, in the assay on Candida albicans [5], in the assay with Staphylococcus aureus [6] and in the assay on Saccharomyces cerevisiae [7] was “inactive” in each case.

`Cc1cc(C(F)(F)F)c2c(-c3ccc(Cl)cc3)nn(-c3ccc(S(N)(=O)=O)cc3)c2n1`: the minimum inhibitory concentration (MIC) in the assay with Staphylococcus aureus [1] worked out at 64 µg/mL (≈ 137 µM); in the assay with Bacillus subtilis [8], 128 µg/mL (≈ 274 µM). For the same compound, the figures for the zone of inhibition at 4000 µg/mL with Bacillus subtilis [3] and in the assay on Staphylococcus aureus [6] were 17.6 mm and 18.6 mm, respectively. Also, the “growth inhibition (GI)” value with Escherichia coli, in the assay with Candida albicans [5] and in the assay with Saccharomyces cerevisiae [7] was “inactive” in each case.

Turning to `Cc1ccc(-c2nn(-c3ccc(S(N)(=O)=O)cc3)c3nc(-c4ccc(F)cc4)cc(C(F)(F)F)c23)cc1`, the MIC in the assay on Staphylococcus aureus [1] was over 256 µg/mL; in the assay on Bacillus subtilis [8] it was 128 µg/mL (≈ 243 µM). Moreover, the zone of inhibition at 4000 µg/mL amounted to 15.6 mm with Bacillus subtilis [3] and 13.6 mm in the assay on Staphylococcus aureus [6]. In addition, the “growth inhibition (GI)” value in the assay with Escherichia coli, in the assay with Candida albicans [5] and in the assay on Saccharomyces cerevisiae [7] was “inactive” each time.

Regarding `NS(=O)(=O)c1ccc(-n2nc(-c3ccccc3)c3c(C(F)(F)F)cc(-c4ccc5ccccc5c4)nc32)cc1`, the MIC with Staphylococcus aureus [1] and in the assay with Bacillus subtilis [8] was 256 µg/mL (≈ 470 µM) each time. Further, the zone of inhibition at 4000 µg/mL came out at 14.6 mm in the assay with Bacillus subtilis [3] and 13.6 mm in the assay with Staphylococcus aureus [6]. Further, the “growth inhibition (GI)” value in the assay with Escherichia coli, with Candida albicans [5] and in the assay on Saccharomyces cerevisiae [7] was “inactive” each time.

Consider `NS(=O)(=O)c1ccc(-n2nc(-c3ccc(Cl)cc3)c3c(C(F)(F)F)cc(-c4ccc(Br)cc4)nc32)cc1`, for which the “growth inhibition (GI)” value with Bacillus subtilis [3], in the assay on Escherichia coli, in the assay on Candida albicans [5], in the assay with Staphylococcus aureus [6] and with Saccharomyces cerevisiae [7] was “inactive” each time.

Turning to `Cc1ccc(-c2cc(C(F)(F)F)c3c(-c4ccc(Cl)cc4)nn(-c4ccc(S(N)(=O)=O)cc4)c3n2)cc1`, the “growth inhibition (GI)” value with Bacillus subtilis [3], in the assay on Escherichia coli, with Candida albicans [5], with Staphylococcus aureus [6] and in the assay with Saccharomyces cerevisiae [7] was “inactive” in each case.

On to `Cc1ccc(-c2cc(C(F)(F)F)c3c(-c4ccc(C)cc4)nn(-c4ccc(S(N)(=O)=O)cc4)c3n2)cc1`, for which the MIC in the assay on Staphylococcus aureus [1] and with Bacillus subtilis [8] was 128 µg/mL (≈ 245 µM) throughout. In addition, the zone of inhibition at 4000 µg/mL in the assay with Bacillus subtilis [3] was 16.3 mm; in the assay with Staphylococcus aureus [6] it was 15.3 mm. Also, the “growth inhibition (GI)” value with Escherichia coli, in the assay on Candida albicans [5] and in the assay with Saccharomyces cerevisiae [7] was “inactive” throughout.

Consider `NS(=O)(=O)c1ccc(-n2nc(-c3ccc(Cl)cc3)c3c(C(F)(F)F)cc(-c4ccc5ccccc5c4)nc32)cc1`, for which the MIC with Staphylococcus aureus [1] and in the assay on Bacillus subtilis [8] was 128 µg/mL (≈ 221 µM) each time. Moreover, the zone of inhibition at 4000 µg/mL in the assay with Bacillus subtilis [3] was determined as 16.3 mm; in the assay with Staphylococcus aureus [6] it was 15.3 mm. Also, the “growth inhibition (GI)” value in the assay on Escherichia coli, in the assay with Candida albicans [5] and with Saccharomyces cerevisiae [7] was “inactive” throughout.

For the compound `NS(=O)(=O)c1ccc(-n2nc(-c3ccccc3)c3c(C(F)(F)F)cc(-c4ccc(Cl)cc4)nc32)cc1`, the MIC in the assay on Staphylococcus aureus [1] and in the assay with Bacillus subtilis [8] was 128 µg/mL (≈ 242 µM) throughout. Moreover, the zone of inhibition at 4000 µg/mL amounted to 16.3 mm in the assay with Bacillus subtilis [3] and 15 mm in the assay on Staphylococcus aureus [6]. Moreover, the “growth inhibition (GI)” value in the assay on Escherichia coli, in the assay with Candida albicans [5] and in the assay with Saccharomyces cerevisiae [7] was “inactive” throughout.

With `C[C@@H]1[C@H](O)[C@@H](C)/C=C/C=C/C=C/C=C/C=C/C=C/C=C/[C@H](O[C@@H]2O[C@H](C)[C@@H](O)[C@H](N)[C@@H]2O)C[C@@H]2O[C@](O)(C[C@@H](O)C[C@@H](O)[C@H](O)CC[C@@H](O)C[C@@H](O)CC(=O)O[C@H]1C)C[C@H](O)[C@H]2C(=O)O` [AMPHOTERICIN B], the MIC in the assay with Candida albicans [2] and in the assay with Saccharomyces cerevisiae [4] was 20 µg/mL (≈ 21.6 µM) each time. Besides, the zone of inhibition at 4000 µg/mL in the assay with Candida albicans [5] turned out to be 16.6 mm; in the assay on Saccharomyces cerevisiae [7] it was 19.3 mm.

As for `Cc1ccc(-c2nn(-c3ccc(S(N)(=O)=O)cc3)c3nc(-c4ccccc4)cc(C(F)(F)F)c23)cc1`, the MIC with Staphylococcus aureus [1] stood at 64 µg/mL (≈ 126 µM); in the assay with Bacillus subtilis [8], 128 µg/mL (≈ 252 µM). Also, the results for the zone of inhibition at 4000 µg/mL with Bacillus subtilis [3] and in the assay on Staphylococcus aureus [6] were 17.6 mm and 18.3 mm, respectively. The “growth inhibition (GI)” value with Escherichia coli, in the assay on Candida albicans [5] and in the assay with Saccharomyces cerevisiae [7] was “inactive” in each case.

Consider `Cc1ccc(-c2nn(-c3ccc(S(N)(=O)=O)cc3)c3nc(-c4ccc(Cl)cc4)cc(C(F)(F)F)c23)cc1`, for which the MIC in the assay on Staphylococcus aureus [1] and in the assay on Bacillus subtilis [8] was 128 µg/mL (≈ 236 µM) in each case. In addition, the zone of inhibition at 4000 µg/mL in the assay on Bacillus subtilis [3] was found to be 16.3 mm; with Staphylococcus aureus [6] it was 15.6 mm. Moreover, the “growth inhibition (GI)” value with Escherichia coli, in the assay on Candida albicans [5] and in the assay with Saccharomyces cerevisiae [7] was “inactive” each time.

With `NS(=O)(=O)c1ccc(-n2nc(-c3ccc(Cl)cc3)c3c(C(F)(F)F)cc(-c4ccc(F)cc4)nc32)cc1`, the “growth inhibition (GI)” value in the assay with Bacillus subtilis [3], in the assay on Escherichia coli, in the assay with Candida albicans [5], with Staphylococcus aureus [6] and in the assay on Saccharomyces cerevisiae [7] was “inactive” throughout.

In the case of `NS(=O)(=O)c1ccc(-n2nc(-c3ccc(Cl)cc3)c3c(C(F)(F)F)cc(-c4ccc(Cl)cc4)nc32)cc1`, the “growth inhibition (GI)” value in the assay with Bacillus subtilis [3], in the assay on Escherichia coli, with Candida albicans [5], in the assay with Staphylococcus aureus [6] and in the assay on Saccharomyces cerevisiae [7] was “inactive” each time.

For `COc1ccc(-c2cc(C(F)(F)F)c3c(-c4ccc(C)cc4)nn(-c4ccc(S(N)(=O)=O)cc4)c3n2)cc1`, the MIC with Staphylococcus aureus [1] stood at 256 µg/mL (≈ 475 µM); with Bacillus subtilis [8], 128 µg/mL (≈ 238 µM). Besides, the zone of inhibition at 4000 µg/mL came to 17.3 mm in the assay with Bacillus subtilis [3] and 14.6 mm in the assay with Staphylococcus aureus [6]. Moreover, the “growth inhibition (GI)” value in the assay on Escherichia coli, with Candida albicans [5] and with Saccharomyces cerevisiae [7] was “inactive” throughout.

As to `Cc1ccc(-c2nn(-c3ccc(S(N)(=O)=O)cc3)c3nc(C(F)(F)F)cc(C(F)(F)F)c23)cc1`, the MIC with Staphylococcus aureus [1] and in the assay with Bacillus subtilis [8] was 128 µg/mL (≈ 256 µM) throughout. The figures for the zone of inhibition at 4000 µg/mL with Bacillus subtilis [3] and in the assay with Staphylococcus aureus [6] were 16.6 mm and 15.6 mm, respectively. Further, the “growth inhibition (GI)” value in the assay with Escherichia coli, with Candida albicans [5] and in the assay on Saccharomyces cerevisiae [7] was “inactive” throughout.

With `Cc1ccc(-c2nn(-c3ccc(S(N)(=O)=O)cc3)c3nc(-c4ccc(Br)cc4)cc(C(F)(F)F)c23)cc1`, the MIC in the assay with Staphylococcus aureus [1] amounted to 256 µg/mL (≈ 436 µM); in the assay on Bacillus subtilis [8] it was 128 µg/mL (≈ 218 µM). Further, the values for the zone of inhibition at 4000 µg/mL in the assay on Bacillus subtilis [3] and in the assay on Staphylococcus aureus [6] were 15.6 mm and 14.3 mm, respectively. For the same compound, the “growth inhibition (GI)” value with Escherichia coli, with Candida albicans [5] and with Saccharomyces cerevisiae [7] was “inactive” throughout.

For `NS(=O)(=O)c1ccc(-n2nc(-c3ccc(Cl)cc3)c3c(C(F)(F)F)cc(-c4ccccc4)nc32)cc1`, the “growth inhibition (GI)” value in the assay on Bacillus subtilis [3], in the assay with Escherichia coli, in the assay on Candida albicans [5], in the assay on Staphylococcus aureus [6] and in the assay with Saccharomyces cerevisiae [7] was “inactive” throughout.

As to `Cc1ccc(-c2nn(-c3ccc(S(N)(=O)=O)cc3)c3nc(C)cc(C(F)(F)F)c23)cc1`, the MIC in the assay with Staphylococcus aureus [1] and in the assay with Bacillus subtilis [8] was 128 µg/mL (≈ 287 µM) in each case. Besides, the zone of inhibition at 4000 µg/mL in the assay with Bacillus subtilis [3] came out at 16.3 mm; in the assay with Staphylococcus aureus [6] it was 15.3 mm. Moreover, the “growth inhibition (GI)” value with Escherichia coli, in the assay on Candida albicans [5] and in the assay with Saccharomyces cerevisiae [7] was “inactive” each time.
